The format of series [1] is in vivo. The following applies: piglets, oral PM 100 mg/kg. How it is done:
Neonatal pigs spontaneously delivered from sows were confirmed to be negative for TGEV by RT-qPCR and enzyme-linked immunosorbent assay. For the cytotoxicity and pharmacokinetic parameters of the PM, three piglets were orally administered PM (100 mg/kg), and the serum was collected by venipuncture at 0, 1, 2, 4, 6, 8, 10, 12, 16, and 24 h after oral administration of PM for cytotoxicity assays and pharmacokinetic parameter determination. For antiviral animal experiments, piglets were randomly separated into four groups: the mock group ([3]), TGEV group ([3]), TGEV-PM-therapy group ([3]), and TGEV-PM-prevention group ([3]). For the TGEV group, neonatal pigs were orally administered 1.245 × 10^8 PFU TGEV Miller for 24 h. In addition, piglets in the TGEV-PM therapy group were orally infected with 1.245 × 10^8 PFU TGEV Miller and then treated with PM (100 mg/kg). For the TGEV-PM-prevention group, three neonatal pigs were orally pretreated with PM (100 mg/kg) for 24 h and subsequently inoculated with 1.245 × 10^8 PFU TGEV Miller for 24 h. The body weights of all piglets were recorded, and anal swabs were collected every 12 h. At 24 hpi, all pigs were euthanized, and intestinal tissues were collected for RT-qPCR, western blot, IFA, and pathological examination. All animals were handled in strict accordance with good animal practice according to the Animal Ethics Procedures and Guidelines of the People’s Republic of China, and the study was approved by The Animal Administration and Ethics Committee of Lanzhou Veterinary Research Institute, Chinese Academy of Agricultural Sciences (Permit No. LVRIAEC-2020-030).
Fig. S9. Cytotoxicity assay and t1/2 detection of PM in piglets. (A) The serum of piglets orally administered PM were collected at 1, 2, 4, 6, 8, 10, 12, 16 and 24 hours respectively and AST, CK and CREA level in those sera were measured by biochemical parameters. (B) PM concentrations at indicated times in piglets were determined by ICP-MS. Results are presented as mean ± SD of data from three independent experiments ns, no significant.

The test system of series [2] is BECN1. Kind of series: BECN1 expression in ST cells (western blot). The series is classed as cell-based, porcine. The following applies: Fig. S8A, PM 10 mM, PRCV 0.1 MOI, 16 h. How it is done:
Fig 7 PM degrades APN expression via activating PIK3C3-mediated autophagy. (A) Graphical representation for autophagy and the targets of different autophagy inhibitors. (B) ST cells were treated with PM (10 mM) in the presence and absence of 3-MA (20 mM), SBI0206965 (20 µM), and 3BDO (30 µM) for 16 h, and the APN expression was detected by western blot. (C) ST cells were treated with PM (10 mM) in the presence and absence of 3-MA (20 mM) for 16 h, and the APN, PIK3C3, ATG14, BECN1, P62, and LC3 were measured by western blot. (D) ST cells were transfected with PIK3C3 siRNA-1, PIK3C3 siRNA-2, PIK3C3 siRNA-3, PIK3C3 siRNA-4, and NC siRNA for 24 h, the PIK3C3 expression was detected by western blot. […] The APN, PIK3C3, ATG14, BECN1, P62, and LC3 were detected by western blot. […] (G) PIK3C3 was detected by western blot in WT ST cells and PIK3C3 KO ST cells. (H) WT ST cells and PIK3C3 KO ST cells were treated with PM (10 mM) for 16 h and then the APN, PIK3C3, ATG14, BECN1, P62, and LC3 were detected by western blot. […] The APN, PIK3C3, P62, and LC3 were detected by western blot. All western blot results were calculated by Image J. All experiments were performed in triplicate.
Fig. S8. […] Then the APN, PIK3C3, ATG14, BECN1, P62, PRCV N and LC3 were detected by western blot (A), and viral titers and PRCV N mRNA level were determined by TCID50 (B) and RT-qPCR (C) . […]

The structures appear in SMILES notation.

Consider `[K+].[K+].[O]=[Mo](=[O])([O-])[O-]` [PM, potassium molybdate], for which, in series [1], the t1/2 result is listed as “approximately 12 h”. In addition, in series [1] (serum, mean ± SD), the “AUC(0-t)” value stood at 975.253 ± 33.380 µg·h/mL, the “AUC(0-∞)” value is 1,341.054 ± 21.475 mg/L*h, the CLz/F was 1.23 ± 0.017 mL/min/kg and the Cmax was found to be 62.645 ± 0.677 µg/mL. In series [1] (serum, mean ± SD), the “MRT(0-t)” value was 10.735 ± 0.155 h, the “MRT(0-∞)” value is recorded as 19.027 ± 1.388 h, the time to peak (Tmax) is 7.333 ± 2.309 h and the Vz/F is reported as 1.267 ± 0.093 L/kg. The same compound had a t1/2z in series [1] (serum, mean ± SD) of 11.784 ± 0.954 h. Besides, the “BECN1 level, western blot, relative to WT without PM (=1)” value in series [2] (PIK3C3 KO ST cells) was 0.95. In series [2] (WT ST cells), the “BECN1 level, western blot, relative to WT without PM (=1)” value is recorded as 1.01.

For orientation: AUC(0-t) means the area under the concentration-time curve up to a stated or last time point. Broadly, the Cmax is the highest concentration seen after dosing. By Tmax is commonly meant the time at which the peak concentration occurs.
